Measured values as given in patent US8008298B2, “Pyrrolopyrazine kinase inhibitors” (Roche Palo Alto, priority 2008, dated 2011).

| SMILES | melting point [°C] |
| --- | --- |
| COc1cccc(-c2cnc3[nH]cc(C(=O)C4(C)CCCCC4)c3n2)c1 [Example 157, [2-(3-Methoxy-phenyl)-5H-pyrrolo[2,3-b]pyrazin-7-yl]-(1-methyl-cyclohexyl)-methanone] | 173 to 175 |
| CC1(C(=O)c2c[nH]c3ncc(-c4cccc(N5CCN(S(N)(=O)=O)CC5)c4)nc23)CCCCC1 [Example 183, 4-{3-[7-(1-Methyl-cyclohexanecarbonyl)-5H-pyrrolo[2,3-b]pyrazin-2-yl]-phenyl}-piperazine-1-sulfonic acid amide] | 233 to 235 |
| COc1ccc(-c2cnc3[nH]cc(C(=O)C(C)(C)C)c3n2)cc1 [Example 98, 1-[2-(4-Methoxy-phenyl)-5H-pyrrolo[2,3-b]pyrazin-7-yl]-2,2-dimethyl-propan-1-one] | 207 to 208 |
| COc1cc(-c2cnc3[nH]cc(C(=O)C4(C)CCCC(C)C4)c3n2)cc(OC)c1OC (centres unmarked) [Example 169, (1,3-Dimethyl-cyclohexyl)-[2-(3,4,5-trimethoxy-phenyl)-5H-pyrrolo[2,3-b]pyrazin-7-yl]-methanone] | 229 to 231 |
| CC(C)(C)C(=O)c1c[nH]c2ncc(-c3cccc(N4CCNCC4)c3)nc12 [Example I-46, 2,2-Dimethyl-1-[2-(3-piperazin-1-yl-phenyl)-5H-pyrrolo[2,3-b]pyrazin-7-yl]-propan-1-one] | 216 to 222 |
| COc1cc(-c2cnc3[nH]cc(C(=O)C(=O)N(C)C)c3n2)cc(OC)c1OC [Example 74, N,N-Dimethyl-2-oxo-2-[2-(3,4,5-trimethoxy-phenyl)-5H-pyrrolo[2,3-b]pyrazin-7-yl]-acetamide] | 227 to 228 |
| CC(C)(C)C(=O)c1c[nH]c2ncc(-c3cccc(N4CCC5(CCSC5)C4)c3)nc12 (centres unmarked) [Example I-168, 2,2-Dimethyl-1-{2-[3-(2-thia-7-aza-spiro[4.4]non-7-yl)-phenyl]-5H-pyrrolo[2,3-b]pyrazin-7-yl}-propan-1-one] | 239 to 241 |
| CC1(C(=O)c2c[nH]c3ncc(Br)nc23)CCCC1 [Example 166, (2-Bromo-5H-pyrrolo[2,3-b]pyrazin-7-yl)-(1-methyl-cyclopentyl)-methanone] | 206.9 to 207.9 |
| COc1cc(-c2cnc3[nH]cc(C(=O)N4CCC(C)(C)C4)c3n2)cc(OC)c1OC [Example I-395, (3,3-Dimethyl-pyrrolidin-1-yl)-[2-(3,4,5-trimethoxy-phenyl)-5H-pyrrolo[2,3-b]pyrazin-7-yl]-methanone] | 228 to 230 |
| CCCOc1cccc(-c2cnc3[nH]cc(C(=O)C(C)(C)C)c3n2)c1 [Example 139, 2,2-Dimethyl-1-[2-(3-propoxy-phenyl)-5H-pyrrolo[2,3-b]pyrazin-7-yl]-propan-1-one] | 179 to 180 |
| CC(C)(C)C(=O)c1c[nH]c2ncc(-c3cccc(-n4cccn4)c3)nc12 [Example I-115, 2,2-Dimethyl-1-[2-(3-pyrazol-1-yl-phenyl)-5H-pyrrolo[2,3-b]pyrazin-7-yl]-propan-1-one] | 219.3 to 221.1 |
| COCc1ccc(-c2cnc3[nH]cc(C(=O)C(C)(C)C)c3n2)cc1 [Example I-132, 1-[2-(4-Methoxymethyl-phenyl)-5H-pyrrolo[2,3-b]pyrazin-7-yl]-2,2-dimethyl-propan-1-one] | 191 to 192 |
| CC(C)COc1cccc(-c2cnc3[nH]cc(C(=O)C(C)(C)C)c3n2)c1 [Example 137, 1-[2-(3-Isobutoxy-phenyl)-5H-pyrrolo[2,3-b]pyrazin-7-yl]-2,2-dimethyl-propan-1-one] | 177 to 178 |
| CC1(C(=O)c2c[nH]c3ncc(-c4ccc(OCCN5CCCCC5)cc4)nc23)CCCCC1 [Example I-368, (1-Methyl-cyclohexyl)-{2-[4-(2-piperidin-1-yl-ethoxy)-phenyl]-5H-pyrrolo[2,3-b]pyrazin-7-yl}-methanone] | 180 to 182 |
| CC(C)(C)C(=O)c1c[nH]c2ncc(-c3cccc(CN)c3)nc12 [Example 149, 1-[2-(3-Aminomethyl-phenyl)-5H-pyrrolo[2,3-b]pyrazin-7-yl]-2,2-dimethyl-propan-1-one] | 176 to 178 |
| CNS(=O)(=O)c1cccc(-c2cnc3[nH]cc(C(=O)C(C)(C)C)c3n2)c1 [Example 141, 3-[7-(2,2-Dimethyl-propionyl)-5H-pyrrolo[2,3-b]pyrazin-2-yl]-N-methyl-benzenesulfonamide] | 245 to 247 |
| CC1(O)CCN(c2cccc(-c3cnc4[nH]cc(C(=O)C(C)(C)C)c4n3)c2)C1 (centres unmarked) [Example I-417, 1-{2-[3-(3-Hydroxy-3-methyl-pyrrolidin-1-yl)-phenyl]-5H-pyrrolo[2,3-b]pyrazin-7-yl}-2,2-dimethyl-propan-1-one] | 237 to 239 |
| CCOc1cccc(-c2cnc3[nH]cc(C(=O)C(C)(C)C)c3n2)c1 [Example 136, 1-[2-(3-Ethoxy-phenyl)-5H-pyrrolo[2,3-b]pyrazin-7-yl]-2,2-dimethyl-propan-1-one] | 195 to 196 |
| COc1cccc(-c2cnc3[nH]cc(C(=O)C(C)(C)C)c3n2)c1 [Example I-134, 1-[2-(3-Methoxy-phenyl)-5H-pyrrolo[2,3-b]pyrazin-7-yl]-2,2-dimethyl-propan-1-one] | 197.4 to 198.8 |
| COc1cc(-c2cnc3[nH]cc(C(=O)C4(C)CCCCC4)c3n2)cc(N2CCSCC2)c1 [Example I-155, [2-(3-Methoxy-5-thiomorpholin-4-yl-phenyl)-5H-pyrrolo[2,3-b]pyrazin-7-yl]-(1-methyl-cyclohexyl)-methanone] | 212 to 214 |
| CCN(CC)c1ccc(-c2cnc3[nH]cc(C(=O)C4(C)CCCCC4)c3n2)cc1 [Example 173, [2-(4-Diethylamino-phenyl)-5H-pyrrolo[2,3-b]pyrazin-7-yl]-(1-methyl-cyclohexyl)-methanone] | 211 to 213 |
| COCC(=O)c1c[nH]c2ncc(-c3cc(OC)c(OC)c(OC)c3)nc12 [Example 132, 2-Methoxy-1-[2-(3,4,5-trimethoxy-phenyl)-5H-pyrrolo[2,3-b]pyrazin-7-yl]-ethanone] | 229 to 230 |
| CC1(C(=O)c2c[nH]c3ncc(-c4cccc(N5CCN(C(=O)C6CCNCC6)CC5)c4)nc23)CCCCC1 [Example 180, (1-Methyl-cyclohexyl)-(2-{3-[4-(piperidine-4-carbonyl)-piperazin-1-yl]-phenyl}-5H-pyrrolo[2,3-b]pyrazin-7-yl)-methanone] | > 300 |
| CC(=O)N1CCN(c2cccc(-c3cnc4[nH]cc(C(=O)C(C)(C)C)c4n3)c2)CC1 [Example I-100, 1-{2-[3-(4-Acetyl-piperazin-1-yl)-phenyl]-5H-pyrrolo[2,3-b]pyrazin-7-yl}-2,2-dimethyl-propan-1-one] | 238 to 239 |
| CC(C)(C)C(=O)c1c[nH]c2ncc(-c3cccc(N4CCN(C(=O)CC#N)CC4)c3)nc12 [Example 90, 3-(4-{3-[7-(2,2-Dimethyl-propionyl)-5H-pyrrolo[2,3-b]pyrazin-2-yl]-phenyl}-piperazin-1-yl)-3-oxo-propionitrile] | 240 to 242 |
| CC(C)(C)C(=O)c1c[nH]c2ncc(-c3ccc(F)c(Cl)c3)nc12 [Example I-341, 1-[2-(3-Chloro-4-fluoro-phenyl)-5H-pyrrolo[2,3-b]pyrazin-7-yl]-2,2-dimethyl-propan-1-one] | 233 to 234 |
